# Assay results from patent publication US20220105183A1, “MICRO-NANO STRUCTURE FORMED BY SELF-ASSEMBLING ORGANIC SMALL MOLECULE COMPOUND AND USE THEREOF” (Qingdao University of Science and Technology, priority 2018, published 2022).
# Experiments:
# Type in all cases: physicochemical
# [1] = TEM, cryo-TEM and AFM of the self-assembled micro-nano structure; conditions: micro-nano structure in aqueous solution, AFM and TEM
# Procedure: (§1) Taking the self-assembled micro-nano structure of Compound II-1 as an example, II-1 was dissolved in DMSO (also can be an organic solvent such as ethanol) to prepare a 2 mM storage solution, and a small amount of storage solution was added to deionized water to prepare 20 μM working solution. Took 10 μL and dropped it on copper mesh, observed and analyzed under transmission electron microscope (TEM), cryo-transmission electron microscope. Took 10 μL and dropped it on mica plate, observed and analyzed under atomic force microscope (AFM). In FIGS. 5, A, B, C and D were TEM photographs, cryo-transmission electron microscope photographs, AFM photographs, and AFM analysis data, respectively. According to the photographs and data, II-1 was self-assembled into nanosheets with a diameter of 40-70 nm and a thickness of 3.7-3.9 nm. […]
# [2] = DLS particle size / self-assembly of the compounds in aqueous solution; conditions: 20 μM working solution in deionized water; for DLS particle size peak (nm) / DLS particle size range (nm): micro-nano structure
# Procedure: The term “particle size” refers to the size of particles, also known as “granularity” or “diameter”. When a certain physical characteristic or physical behavior of the measured particle is closest to a homogeneous sphere (or combination) of a certain diameter, the diameter (or combination) of the sphere is taken as the equivalent particle size of the measured particle. The particle size parameter of the micro-nano structure of the present invention is measured by the principle of dynamic light scattering (DLS), specifically measured by a laser particle size analyzer.
# as §1
# Among them, the particle size test results of II-12 to II-15 in aqueous solution are shown in FIG. 6, and the results of dynamic light scattering DLS of II-16 to 1-18 are shown in FIG. 7).
# [3] = Photothermal stability, repeated 808 nm irradiation and cooling; conditions: for reduction of absorbance after 5 times of irradiation: ultraviolet spectra before and after
# Procedure: We selected sample No. 3 to test the photothermal stability experiment. As shown in the right figure of FIG. 8, sample No. 3 was irradiated with 808 nm laser for 9 minutes and then the temperature increased from room temperature 30° C. to 62° C., and then allowed to naturally cool down to room temperature, and irradiated with 808 nm laser again for 9 minutes, then naturally cooled down, and repeated for 5 times. […] After 9 minutes of irradiation, the temperature was raised by […], and then returned to room temperature.
# [4] = Photothermal effect in vitro under 808 nm laser irradiation; conditions: for light-to-heat conversion efficiency: 20 μM in water; for light-to-heat conversion efficiency / photothermal effect: 808 nm (2.6 W/cm-2) laser 10 minutes; for temperature rise: 40 μM in water, 808 nm (2.6 W/cm-2) laser, within 10 minutes; for photothermal effect: in water
# Procedure: A total of 4 groups of samples, 3 mL was taken and added to a cuvette respectively, and the lid was sealed.
# The sample No. 2 was 10 μM II-1, and the specific preparation method is 3 mL deionized water plus 15 μL II-1 stock solution (2 mM, dissolved in DMSO);
# The sample No. 3 was 20 μM II-1, and the specific preparation method was that 3 mL deionized water was added 30 μL II-1 stock solution (2 mM, dissolved in DMSO);
# The sample No. 4 was 40 μM II-1, and the specific preparation method was that 3 mL deionized water was added 60 μL II-1 stock solution (2 mM, dissolved in DMSO).
# Each sample was irradiated with an 808 nm laser for 5 minutes, and the temperature data was recorded every 5 seconds with a thermal imager, and the temperature corresponding to the time was plotted in origin, as shown in the left figure of FIG. 8. […] The temperature of sample No. 2 increased from room temperature 30° C. to 54° C., and the temperature was raised by 24° C. The temperature of sample No. 3 increased from room temperature 30° C. to 62° C., and the temperature was raised by 32° C. The temperature of sample No. 4 increased from room temperature 30° C. to 77° C., and the temperature was raised by 47° C.
# Using a method similar to Example 8, 10 μM, 20 μM and 40 μM samples of II-16, II-17 and II-18 were prepared, respectively, they were irradiated under an 808 nm (2.6 W/cm-2) laser for 10 minutes. 40 μM II-16 to 18 samples can rise by 40° C., 36° C. and 18° C. respectively within 10 minutes under laser irradiation.
# Using a method similar to that in Example 8, three samples of 20 μM of 1-16, II-17 and II-18 in water were irradiated with 808 nm (2.6 W/cm-2) laser for 10 minutes, and the light-to-heat conversion efficiency calculation result thereof were shown in FIG. 10. […] And II-18 not only has poor light-heat effect, but also has low light-heat conversion efficiency, only 12.9%.
# [5] = Assembly stability in different media
# Procedure: Since II-16 has excellent photothermal properties, its assembly stability in serum-containing medium and in PBS at different temperatures was tested, as shown in FIG. 13.
# [6] = 808 nm laser at 2.6 W/cm-2, irradiated and cooled 5 times
Compound,Morphology [1],DLS particle size peak (nm) [2],DLS particle size range (nm) [2],"reduction of absorbance after 5 times of irradiation [3, 6]",light-to-heat conversion efficiency [4],temperature rise [4],photothermal effect [4],absorbance over time ([5]; at 37° C.),"temperature raised by, first irradiation ([3]; 808 nm laser, after 9 minutes of irradiation)","temperature on laser irradiation again ([3]; after return to room temperature, second irradiation)",particle size by DLS [2],"temperature in repeated irradiations [3, 6]",aggregation mode (H aggregation) ([5]; serum-containing medium and PBS at different temperatures)
C#CCOc1ccc(C2CC(=CC=C3N(CC)c4ccccc4C3(C)C)C(NCCn3ccnc3[N+](=O)[O-])=C(C=CC3=C(C#N)C(=C(C#N)C#N)OC3(C)C)C2)cc1 (centres unmarked) [II-15],nano-sheet,60 nm,40-110 nm,–,–,–,–,–,–,–,–,–,–
"CC1(C)C(/C=C/C=C/C=C/C=C2\N(CCCCS(=O)(=O)[O-])c3ccc4ccccc4c3C2(C)C)=[N+](CCCCS(=O)(=O)[O-])c2ccc3ccccc3c21.[Na+] [ICG, reference compound]",–,–,–,–,–,–,–,–,15 °C,the temperature cannot be increased,could not be detected,–,–
C#CCOc1ccc(C2CC(=CC=C3N(CC)c4ccccc4C3(C)C)C(Cl)=C(C=CC3=C(C#N)C(=C(C#N)C#N)OC3(C)C)C2)cc1 (centres unmarked) [II-13],nano-sheet,74 nm,40-110 nm,–,–,–,–,–,–,–,–,–,–

# Further lines, with some results ahead:
Morphology [1],DLS particle size peak (nm) [2],DLS particle size range (nm) [2],"reduction of absorbance after 5 times of irradiation [3, 6]",light-to-heat conversion efficiency [4],temperature rise [4],photothermal effect [4],absorbance over time ([5]; at 37° C.),"temperature raised by, first irradiation ([3]; 808 nm laser, after 9 minutes of irradiation)","temperature on laser irradiation again ([3]; after return to room temperature, second irradiation)",particle size by DLS [2],Compound,"temperature in repeated irradiations [3, 6]",aggregation mode (H aggregation) ([5]; serum-containing medium and PBS at different temperatures)
nano-sheet,10 nm,10-86 nm,75%,25%,36 °C,excellent photothermal effect,–,–,–,–,CCN1C(=CC=C2CCCC(C=CC3=C(C#N)C(=C(C#N)C#N)OC3(C)C)=C2Cl)Sc2ccccc21 [II-17],–,–
nano-sheet,199 nm,163-293 nm,2%,56.9%,40 °C,excellent photothermal effect,the absorbance will decrease with time,–,–,–,CCn1c(=CC=C2CCCC(C=CC3=C(C#N)C(=C(C#N)C#N)OC3(C)C)=C2Cl)c2cccc3cccc1c32 [II-16],each time the temperature can rise to the same temperature as the first time,will not change due to changes in external conditions
nano-sheet,78 nm,27-134 nm,–,–,–,–,–,–,–,–,CCN1C(=CC=C2CCCC(C=CC3=C(C#N)C(=C(C#N)C#N)OC3(C)C)=C2Cl)C(C)(C)c2ccc3ccccc3c21 [II-14],–,–
nano-sheet,78 nm,20-160 nm,–,–,–,–,–,–,–,–,C=CCOc1ccc(C2CC(=CC=C3N(CC)c4ccccc4C3(C)C)C(Cl)=C(C=CC3=C(C#N)C(=C(C#N)C#N)OC3(C)C)C2)cc1 (centres unmarked) [II-12],–,–
nano-sheet,42 nm,42-139 nm,–,12.9%,18 °C,poor photothermal effect,–,–,–,–,CCN(CC)c1ccc2c(c1)OC1=C(C=C3CCCC(C=CC4=C(C#N)C(=C(C#N)C#N)OC4(C)C)=C3Cl)CCCC1=C2 [II-18],–,–
